These results are taken from US20220315554A1, “COMPOUNDS COMPRISING A […] LIGAND AND USE THEREOF” (priority 2019, published 2022).

Data set [1] in a line: Plasma stability assay, mouse plasma. In kind it is in vitro ADME. Particulars: 4 h incubation, 37° C., read-out: % intact compound remaining after incubation, Mouse plasma.
Data set [2] concerns the target T1, FAP-expressing human WI-38 fibroblasts (Homo sapiens, UniProt Q12884).
T1 construct: FAP-expressing human WI-38 fibroblasts (ECACC) were cultured in EMEM; host or cells: WI-38 human fibroblasts
T1 sequence (Q12884 1-760): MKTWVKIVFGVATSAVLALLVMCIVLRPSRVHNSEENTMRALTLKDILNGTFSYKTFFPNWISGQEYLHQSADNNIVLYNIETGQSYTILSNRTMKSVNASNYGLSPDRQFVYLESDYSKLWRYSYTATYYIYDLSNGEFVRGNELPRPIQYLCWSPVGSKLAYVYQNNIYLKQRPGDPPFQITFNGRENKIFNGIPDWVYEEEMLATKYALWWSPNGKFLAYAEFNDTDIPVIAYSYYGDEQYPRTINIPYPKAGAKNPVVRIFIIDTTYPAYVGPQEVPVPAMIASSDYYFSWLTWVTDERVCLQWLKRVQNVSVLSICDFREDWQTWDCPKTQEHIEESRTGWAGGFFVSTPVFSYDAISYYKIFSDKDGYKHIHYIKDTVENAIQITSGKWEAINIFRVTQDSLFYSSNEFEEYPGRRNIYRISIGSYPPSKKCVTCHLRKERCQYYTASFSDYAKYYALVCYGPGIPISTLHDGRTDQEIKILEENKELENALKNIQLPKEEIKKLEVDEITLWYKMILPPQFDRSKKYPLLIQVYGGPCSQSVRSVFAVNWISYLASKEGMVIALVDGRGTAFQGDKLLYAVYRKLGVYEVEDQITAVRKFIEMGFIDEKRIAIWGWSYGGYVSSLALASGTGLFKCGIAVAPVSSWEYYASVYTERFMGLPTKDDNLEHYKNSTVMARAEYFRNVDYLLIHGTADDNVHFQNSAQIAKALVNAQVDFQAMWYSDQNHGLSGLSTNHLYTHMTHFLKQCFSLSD
In words: Competitive FACS binding assay. Particulars: pIC50 Category (FACS), competition with 3 nM Cy5-labeled compound, WI-38 fibroblasts, 4° C., 1 hour. How it is done: Cells were analyzed in an Attune NxT flow cytometer. […]

The target in data set [3] is T2, Human recombinant FAP (Homo sapiens, UniProt Q12884).
T2 sequence (Q12884 1-760): T1 sequence (Q12884 1-760)
The experiment in a line: Surface plasmon resonance (Biacore) assay. Type of data set: binding. (In SPR one partner is held on a chip, and binding of the other changes the refractive index at the surface.)

For data set [4], the target named is T2, Human recombinant FAP. In words: FRET-based FAP protease activity assay. Type of data set: biochemical. Details: purchased R&D systems 3715-SE. As to conditions: pIC50 Category (Activity), recombinant human FAP, FRET substrate, 37° C.

Each structure is given as a SMILES string. Numbered stars: 1 amine (or outer) side, 2 acyl side, 3 side chain; on linkers, the order of the positions; unused ones are H or OH. Bridge positions count the residues as written; N and C are the ends. Square brackets hold non-standard residues; d marks the D form. Peptide text beside a SMILES is read from it. * marks the point of attachment. mXylylene = c1cc(C[*:1])cc(C[*:2])c1; αMeF = C[C@](N)(Cc1ccccc1)C(=O)O; 4Pal = N[C@@H](Cc1ccncc1)C(=O)O; Aic = NC1(C(=O)O)Cc2ccccc2C1; Hexanoyl = CCCCCC(=O)* A value given as a limit tells only on which side of the number the result lay.

What is called fraction remaining is the share of the starting amount still present when the sample was taken. A word on the IC50: it is the concentration needed to halve the response being measured. The term Kd denotes a measure of binding affinity in units of concentration.

In the case of `CCCCCC(=O)N[C@H]1CSCc2cccc(c2)CSC[C@@H](C(=O)N[C@@H](CC(=O)O)C(=O)N[C@@H](Cc2c[nH]cn2)C(=O)N[C@@H](Cc2ccccc2)C(=O)N[C@@H](CCCNC(=N)N)C(=O)N[C@@H](CC(=O)O)C(N)=O)NC(=O)[C@H](Cc2ccccc2)NC(=O)[C@H](CCC(=O)O)NC(=O)[C@H]([C@@H](C)O)NC(=O)[C@@H]2CCCN2C(=O)[C@@H]2CCCN2C1=O` [3BP-2974, Hex-[Cys(3MeBn)-Pro-Pro-Thr-Glu-Phe-Cys]-Asp-His-Phe-Arg-Asp-NH2] (Hexanoyl-CPPTEFCDHFRD-NH2; linker 1-7 via mXylylene), the fraction remaining at 4 h, 9.8 µM in data set [1] stood at 92%. Further, the IC50 (in data set [2]; at Human recombinant FAP [4]) was under 10 nM throughout. Moreover, at Human recombinant FAP [3], the Kd is under 10 nM.
With `CSCC[C@H](NC(C)=O)C(=O)N[C@H]1CSCc2cccc(c2)CSC[C@@H](C(=O)N[C@@H](CC(=O)O)C(=O)N[C@@H](Cc2c[nH]cn2)C(=O)N[C@@H](Cc2ccccc2)C(=O)N[C@@H](CCCNC(=N)N)C(=O)N[C@@H](CC(=O)O)C(N)=O)NC(=O)[C@H](Cc2ccccc2)NC(=O)[C@H](CCC(=O)O)NC(=O)[C@H]([C@@H](C)O)NC(=O)[C@@H]2CCCN2C(=O)[C@@H]2CCCN2C1=O` [3BP-2975, Ac-Met-[Cys(3MeBn)-Pro-Pro-Thr-Glu-Phe-Cys]-Asp-His-Phe-Arg-Asp-NH2] (Ac-MCPPTEFCDHFRD-NH2; linker 2-8 via mXylylene), in data set [1], the amount remaining at 4 h, 9.8 µM is 100%. Also, the IC50 (in data set [2]; at Human recombinant FAP [4]) was under 10 nM throughout. Besides, the Kd on Human recombinant FAP [3] was under 10 nM.
For the compound `CSCC[C@H](NC(C)=O)C(=O)N[C@H]1CSCc2cccc(c2)CSC[C@@H](C(=O)N[C@@H](CC(=O)O)C(=O)N[C@@H](Cc2c[nH]cn2)C(=O)NC2(C(=O)N[C@@H](CCCNC(=N)N)C(=O)N[C@@H](CC(=O)O)C(N)=O)Cc3ccccc3C2)NC(=O)[C@H](Cc2ccccc2)NC(=O)[C@H](CCC(=O)O)NC(=O)[C@H]([C@@H](C)O)NC(=O)[C@@H]2CCCN2C(=O)[C@@H]2CCCN2C1=O` [3BP-3190, Ac-Met-[Cys(3MeBn)-Pro-Pro-Thr-Glu-Phe-Cys]-Asp-His-Aic-Arg-Asp-NH2] (Ac-MCPPTEFCDH[Aic]RD-NH2; linker 2-8 via mXylylene), the share remaining at 4 h, 9.8 µM in data set [1] is 88%. Moreover, the IC50 (in data set [2]; on Human recombinant FAP [4]) was under 10 nM throughout.
For `CSCC[C@H](NC(C)=O)C(=O)N[C@H]1CSCc2cccc(c2)CSC[C@@H](C(=O)N[C@@H](CC(=O)O)C(=O)N[C@@H](Cc2c[nH]cn2)C(=O)N[C@@H](Cc2ccncc2)C(=O)N[C@@H](CCCNC(=N)N)C(=O)N[C@@H](CC(=O)O)C(N)=O)NC(=O)[C@H](Cc2ccccc2)NC(=O)[C@H](CCC(=O)O)NC(=O)[C@H]([C@@H](C)O)NC(=O)[C@@H]2CCCN2C(=O)[C@@H]2CCCN2C1=O` [3BP-3191, Ac-Met-[Cys(3MeBn)-Pro-Pro-Thr-Glu-Phe-Cys]-Asp-His-Ppa-Arg-Asp-NH2] (Ac-MCPPTEFCDH[4Pal]RD-NH2; linker 2-8 via mXylylene), the share remaining at 4 h, 9.8 µM in data set [1] was 100%. Besides, the IC50 (in data set [2]; at Human recombinant FAP [4]) was under 10 nM each time.
Regarding `CSCC[C@H](NC(C)=O)C(=O)N[C@H]1CSCc2cccc(c2)CSC[C@@H](C(=O)N[C@@H](CC(=O)O)C(=O)N[C@@H](Cc2c[nH]cn2)C(=O)N[C@@H](C)C(=O)N[C@@H](CCCNC(=N)N)C(=O)N[C@@H](CC(=O)O)C(N)=O)NC(=O)[C@H](Cc2ccccc2)NC(=O)[C@H](CCC(=O)O)NC(=O)[C@H]([C@@H](C)O)NC(=O)[C@@H]2CCCN2C(=O)[C@@H]2CCCN2C1=O` [3BP-3196, Ac-Met-[Cys(3MeBn)-Pro-Pro-Thr-Glu-Phe-Cys]-Asp-His-Ala-Arg-Asp-NH2] (Ac-MCPPTEFCDHARD-NH2; linker 2-8 via mXylylene), the amount remaining at 4 h, 9.8 µM in data set [1] stood at 87%. Further, the IC50 (in data set [2]; on Human recombinant FAP [4]) was under 10 nM each time.
In the case of `CC(=O)N[C@H]1CSCc2cccc(c2)CSC[C@@H](C(=O)N[C@@H](CC(=O)O)C(=O)N[C@@H](Cc2c[nH]cn2)C(=O)N[C@@H](Cc2ccccc2)C(=O)N[C@@H](CCCNC(=N)N)C(=O)N[C@@H](CC(=O)O)C(N)=O)NC(=O)[C@H](Cc2ccccc2)NC(=O)[C@H](CCC(=O)O)NC(=O)[C@H]([C@@H](C)O)NC(=O)[C@@H]2CCCN2C(=O)[C@@H]2CCCN2C1=O` [3BP-3202, Ac-[Cys(3MeBn)-Pro-Pro-Thr-Glu-Phe-Cys]-Asp-His-Phe-Arg-Asp-NH2] (Ac-CPPTEFCDHFRD-NH2; linker 1-7 via mXylylene), the share remaining at 4 h, 9.8 µM in data set [1] turned out to be 78%. For the same compound, the IC50 (in data set [2]; on Human recombinant FAP [4]) was under 10 nM in each case. In addition, the Kd on Human recombinant FAP [3] is under 10 nM.
With `CSCC[C@H](NC(C)=O)C(=O)N[C@H]1CSCc2cccc(c2)CSC[C@@H](C(=O)N[C@@H](CC(=O)O)C(=O)N[C@@H](Cc2c[nH]cn2)C(=O)N[C@@](C)(Cc2ccccc2)C(=O)N[C@@H](CCCNC(=N)N)C(=O)N[C@@H](CC(=O)O)C(N)=O)NC(=O)[C@H](Cc2ccccc2)NC(=O)[C@H](CCC(=O)O)NC(=O)[C@H]([C@@H](C)O)NC(=O)[C@@H]2CCCN2C(=O)[C@@H]2CCCN2C1=O` [3BP-3203, Ac-Met-[Cys(3MeBn)-Pro-Pro-Thr-Glu-Phe-Cys]-Asp-His-Amf-Arg-Asp-NH2] (Ac-MCPPTEFCDH[αMeF]RD-NH2; linker 2-8 via mXylylene), the share remaining at 4 h, 9.8 µM in data set [1] was found to be 100%. The IC50 (in data set [2]; at Human recombinant FAP [4]) was under 10 nM throughout.
As for `CSCC[C@H](NC(C)=O)C(=O)N[C@H]1CSCc2cccc(c2)CSC[C@@H](C(=O)N[C@@H](CC(=O)O)C(=O)N[C@H](Cc2c[nH]cn2)C(=O)N[C@@H](Cc2ccccc2)C(=O)N[C@@H](CCCNC(=N)N)C(=O)N[C@@H](CC(=O)O)C(N)=O)NC(=O)[C@H](Cc2ccccc2)NC(=O)[C@H](CCC(=O)O)NC(=O)[C@H]([C@@H](C)O)NC(=O)[C@@H]2CCCN2C(=O)[C@@H]2CCCN2C1=O` [3BP-3210, Ac-Met-[Cys(3MeBn)-Pro-Pro-Thr-Glu-Phe-Cys]-Asp-his-Phe-Arg-Asp-NH2] (Ac-MCPPTEFCD[dH]FRD-NH2; linker 2-8 via mXylylene), the share remaining at 4 h, 9.8 µM in data set [1] was determined as 100%. Also, the half-inhibitory concentration (IC50) (in data set [2]; at Human recombinant FAP [4]) was under 10 nM each time.
In the case of `CSCC[C@H](NC(C)=O)C(=O)N[C@H]1CSCc2cccc(c2)CSC[C@@H](C(=O)N[C@@H](CC(=O)O)C(=O)N[C@@H](Cc2c[nH]cn2)C(=O)N[C@H](Cc2ccccc2)C(=O)N[C@@H](CCCNC(=N)N)C(=O)N[C@@H](CC(=O)O)C(N)=O)NC(=O)[C@H](Cc2ccccc2)NC(=O)[C@H](CCC(=O)O)NC(=O)[C@H]([C@@H](C)O)NC(=O)[C@@H]2CCCN2C(=O)[C@@H]2CCCN2C1=O` [3BP-3211, Ac-Met-[Cys(3MeBn)-Pro-Pro-Thr-Glu-Phe-Cys]-Asp-His-phe-Arg-Asp-NH2] (Ac-MCPPTEFCDH[dF]RD-NH2; linker 2-8 via mXylylene), the amount remaining at 4 h, 9.8 µM in data set [1] stood at 85%. Also, the half-maximal inhibitory concentration (IC50) (in data set [2]; on Human recombinant FAP [4]) was under 10 nM throughout.
With `CSCC[C@H](NC(C)=O)C(=O)N[C@H]1CSCc2cccc(c2)CSC[C@@H](C(=O)N[C@@H](CC(=O)O)C(=O)N[C@@H](Cc2c[nH]cn2)C(=O)N[C@@H](Cc2ccccc2)C(=O)N[C@H](CCCNC(=N)N)C(=O)N[C@@H](CC(=O)O)C(N)=O)NC(=O)[C@H](Cc2ccccc2)NC(=O)[C@H](CCC(=O)O)NC(=O)[C@H]([C@@H](C)O)NC(=O)[C@@H]2CCCN2C(=O)[C@@H]2CCCN2C1=O` [3BP-3212, Ac-Met-[Cys(3MeBn)-Pro-Pro-Thr-Glu-Phe-Cys]-Asp-His-Phe-arg-Asp-NH2] (Ac-MCPPTEFCDHF[dR]D-NH2; linker 2-8 via mXylylene), the amount remaining at 4 h, 9.8 µM in data set [1] is 80%. In addition, the IC50 (in data set [2]; at Human recombinant FAP [4]) was under 10 nM throughout.
